Experimental data from patent publication US10334859B2, “Method and pesticidal mixtures for controlling Pentatomidae pests” (BASF SE, priority 2014, dated 2019).
Like-named read-outs stand apart in the source and are kept apart here.

What was measured:
[1] = tested on: Alternaria solani; format: cell-based
[2] = tested on: Septoria tritici; format: cell-based
[3] = tested on: Leptosphaeria nodorum; format: cell-based
[4] = tested on: southern green stink bug (Nezara viridula); assay: Test 7: control of southern green stink bug on dipped Lima bean plants; format: in vivo; conditions: 50 ppm; mortality (sick + death insects) of second instar at 5 days
Experimental: Beauveria bassiana strain PPRI 5339 was at room temperature for one hour before use.
Seven days old Lima bean plants were dipped into each treatment. Once dried, plants were artificially infested with four second instar southern green stink bugs. Percentage of mortality (sick+ death insects) was evaluated at 5 days.

[5] = tested on: Pyricularia oryzae; format: cell-based
[6] = tested on: Phytophthora infestans; format: cell-based
[7] = tested on: Botrytis cinerea; format: cell-based; conditions: concentration 4
[8] = tested on: southern green stink bug (Nezara viridula); assay: Test 5: control of southern green stink bug, dipped green beans and bugs; conditions: 10 ppm

Work on `CC(C)(C)[C@]1(O)C[C@@H]2OC(=O)C[C@@]23C(=O)O[C@@H]2OC(=O)[C@H](O)[C@]213` [Bilobalide, (3aS,5aR,8aS,9R,10aR)-9-tert-butyl-8,9-dihydroxydihydro-9H-furo[2,3-b]furo[3′,2′;2,3]cyclopenta[1,2-c]furan-2,4,7(3H,8H)-trione] yielded an Observed efficacy ([1]; concentration 16) of 0%, an Observed efficacy ([1]; concentration 63) of 0% and an Observed efficacy ([2]; concentration 1) of 6%. The Observed efficacy ([2]; concentration 4) was 8%, the Observed efficacy ([2]; concentration 16) was 9% and the Observed efficacy ([3]; concentration 63) was 24%. It also gave an Observed efficacy [4] of 33%, an Observed efficacy ([5]; concentration 4) of 3% and an Observed efficacy ([5]; concentration 16) of 1%. The Observed efficacy ([5]; concentration 63) was 5%, the Observed efficacy ([6]; 0.063 ppm) was 0% and the Observed efficacy ([6]; 0.25 ppm) was 4%. For the same molecule, the Observed efficacy ([6]; 1 ppm) was 24%.

Molecule `CC1COC(Cn2cncn2)(c2ccc(Oc3ccc(Cl)cc3)cc2Cl)O1` (stereo not shown) [Difenoconazol, difenoconazole] has an Observed efficacy ([1]; concentration 1) of 0% and an Observed efficacy ([3]; concentration 1) of 21%.

With `CCCN(CCOc1c(Cl)cc(Cl)cc1Cl)C(=O)n1ccnc1` [Prochloraz, prochloraz] the Observed efficacy ([2]; concentration 4) was 49% and the Observed efficacy [7] was 39%.

`Fc1ccc([C@]2(Cn3cncn3)O[C@H]2c2ccccc2Cl)cc1` (racemic) [Epoxiconazol, epoxiconazole] gave an Observed efficacy ([1]; concentration 0.25) of 36% and an Observed efficacy ([2]; concentration 0.25) of 35%.

`Cn1cc(C(=O)Nc2ccccc2-c2cc(F)c(F)c(F)c2)c(C(F)F)n1` [Fluxapyroxad, fluxapyroxad] was tested, and the Observed efficacy [8] was 0%.

`CON=C(C(=O)OC)c1ccccc1CON=C(C)c1cccc(C(F)(F)F)c1` [Trifloxystrobin, trifloxystrobin] gave an Observed efficacy ([2]; concentration 0.004) of 7% and an Observed efficacy ([2]; concentration 0.016) of 67%.

For `CO/C=C(/C(=O)OC)c1ccccc1COc1cccc(C(F)(F)F)n1` [Picoxystrobin, picoxystrobin], the Observed efficacy ([1]; concentration 0.25) was 39%.

chlorothalonil gave an Observed efficacy ([3]; concentration 1) of 39% and an Observed efficacy [7] of 53%.

Molecule `CO/N=C(/C1=NOCCO1)c1ccccc1Oc1ncnc(Oc2ccccc2Cl)c1F` [Fluoxastrobin, fluoxastrobin] has an Observed efficacy ([1]; concentration 0.25) of 11%.

Molecule `CC1(C(=O)Nc2ccc(O)c(Cl)c2Cl)CCCCC1` [Fenhexamid, fenhexamid] has an Observed efficacy ([1]; concentration 4) of 46%.

With `COC(=O)N(OC)c1ccccc1COc1ccn(-c2ccc(Cl)cc2)n1` [Pyraclostrobin, pyraclostrobin] the Observed efficacy ([2]; concentration 0.004) was 59% and the Observed efficacy [8] was 0%.

With `CCCCCCCCc1c(CC)nc2ncnn2c1N` [Ametoctradin, ametoctradin] the Observed efficacy ([6]; 0.004 ppm) was 0%.

In the case of `C[C@@H]1C(=O)O[C@H]2C[C@@]34[C@H]5C[C@@H](C(C)(C)C)[C@]36[C@@H](OC(=O)[C@@H]6O)O[C@@]4(C(=O)O5)[C@]21O` [Ginkgolide A], the Observed efficacy ([1]; concentration 16) was 0%, the Observed efficacy ([1]; concentration 63) was 0% and the Observed efficacy ([2]; concentration 63) was 16%. The Observed efficacy ([3]; concentration 63) was 18%.
